Experimental data reported in PMC3113977, “Structural characteristics and antiviral activity of multiple peptides derived from MDV glycoproteins B and H” (Virology Journal, 2011).
Where a SMILES comes first, the peptide text is derived from it.

Key:
[1] = system: MDV; type: cell-based, Marek's disease virus (MDV) strain RB1B
[2] = system: MDV; design: species or system Marek's disease virus (MDV) strain RB1B; details: in vivo
[3] = Gel filtration (GF) analysis of oligomeric state; type: physicochemical; details: for MW of polymer (GF peak molecular mass): Superdex G75, 20 mM Tris-HCl pH 8.0, estimated against protein standards; for Oligomeric state: aqueous solution, Superdex G75, 20 mM Tris-HCl pH 8.0, GF peak mass versus MS monomer mass
Description: Figure 5 GF results and structural analyses of five peptides. (top) GF analysis of peptides. The purified peptides were loaded onto the Superdex G75 column in a buffer solution of 20 mM Tris-HCl, pH 8.0. The peak molecular mass was estimated by comparison with the protein standards running on the same column. The clear peak of gHH1 occurred at about 12.1 kDa. This molecular mass matches the approximate sum of four molecules, indicating the formation of the homotetrameric structure. The peak of gHH2 occurred at about 7.2 kDa, indicating the formation of the homodimeric structure. The peak of gHH3 occurred at about 3.8 kDa, indicating the monomeric state. The peak of gHH5 occurred at about 9.1 kDa, indicating the formation of the homotrimeric structure. The peak of gBH1 occurred at about 10.7 kDa, indicating the formation of the homotrimeric structure. (bottom) Sequences and calculated oligomeric states of gHH1, gHH2, gHH3, gHH5, and gBH1 in aqueous solution. TEXT PRINTED IN THE PICTURE: gHH1: MW of monomer: 3184 Da; MW of polymer: 12.1 kDa; Oligomeric state: 4 (tetramer) | gHH2: MW of monomer: 3623 Da; MW of polymer: 7.2 kDa; Oligomeric state: 2 (dimer) | gHH3: MW of monomer: 3795 Da; MW of polymer: 3.8 kDa; Oligomeric state: 1 (monomer) | gHH5: MW of monomer: 3002 Da; MW of polymer: 9.1 kDa; Oligomeric state: 3 (trimer) | gBH1: MW of monomer: 3303 Da; MW of polymer: 10.7 kDa; Oligomeric state: 3 (trimer)
The purified cleaved peptides were loaded onto the Superdex G75 column in a solution buffer of 20 mM Tris-HCl, pH 8.0. The peak molecular mass was estimated by comparison with protein standards running on the same column. The peak fractions were collected and analysed by 15% SDS-PAGE. The analytical column was calibrated using a series of individual runs of standard molecular mass proteins as markers including bovine serum albumin (68 kDa), egg white albumin (43 kDa), […] (13.7 kDa), aprotinin (6.5 kDa), antimicrobial peptides (5 kDa), and vitamin B12 (1.4 kDa).

For CC[C@H](C)[C@H](NC(=O)[C@H](CCC(=O)O)NC(=O)[C@H](CCSC)NC(=O)[C@H](CC(=O)O)NC(=O)[C@H](CO)NC(=O)[C@H](C)NC(=O)[C@H](CC(N)=O)NC(=O)[C@H](CCSC)NC(=O)[C@@H](N)Cc1c[nH]cn1)C(=O)N[C@@H](CCCCN)C(=O)N[C@@H](CO)C(=O)N[C@@H](Cc1ccc(O)cc1)C(=O)N[C@H](C(=O)N[C@@H](CC(N)=O)C(=O)N[C@@H](CCSC)C(=O)N[C@H](C(=O)N[C@@H](CCC(=O)O)C(=O)N[C@@H](CO)C(=O)N[C@H](C(=O)N[C@@H](CCC(=O)O)C(=O)N[C@@H](CCC(=O)O)C(=O)N[C@@H](CO)C(=O)N[C@@H](CO)C(=O)N[C@@H](CC(N)=O)C(=O)N[C@@H](Cc1ccc(O)cc1)C(=O)N[C@@H](CC(=O)O)C(=O)N[C@@H](Cc1ccccc1)C(=O)O)C(C)C)[C@@H](C)CC)[C@@H](C)CC [gHH1] (H-HMNASDMEIKSYINMIESVEESSNYDF-OH; N-terminus and C-terminus assumed), the “inhibition of plaque formation” value [1] was 100%, the plaque formation [1] was “completely inhibited” and the “lesion formation on CAMs” value [2] was “completely inhibited”. The “lesion formation on CAMs (words)” value [2] was “significantly able to reduce lesion formation”, the “MW of polymer (GF peak molecular mass)” value [3] was 12.1 kDa and the Oligomeric state [3] was 4.
For CC[C@H](C)[C@H](NC(=O)[C@H](Cc1ccc(O)cc1)NC(=O)CNC(=O)[C@H](CO)NC(=O)[C@H](CCC(N)=O)NC(=O)[C@H](Cc1ccccc1)NC(=O)[C@H](C)NC(=O)[C@H](CC(N)=O)NC(=O)[C@H](CCCNC(=N)N)NC(=O)[C@@H](NC(=O)[C@H](CO)NC(=O)[C@H](C)NC(=O)[C@@H](NC(=O)[C@H](CC(C)C)NC(=O)[C@H](CO)NC(=O)[C@H](CCSC)NC(=O)[C@H](Cc1ccccc1)NC(=O)[C@H](CC(C)C)NC(=O)[C@H](CCCNC(=N)N)NC(=O)[C@@H](NC(=O)[C@@H](NC(=O)[C@@H](NC(=O)[C@@H](N)C(C)C)C(C)C)[C@@H](C)O)[C@@H](C)O)C(C)C)C(C)C)C(=O)N[C@@H](CO)C(=O)N[C@@H](Cc1ccccc1)C(=O)N[C@@H](CC(=O)O)C(=O)N[C@@H](CCC(=O)O)C(=O)N[C@H](C(=O)N[C@H](C(=O)N[C@@H](CCCCN)C(=O)N[C@H](C(=O)N[C@@H](CCC(=O)O)C(=O)O)[C@@H](C)O)[C@@H](C)CC)[C@@H](C)CC [gHH2] (H-VVTTRLFMSLVASVRNAFQSGYISFDEIIKTE-OH; N-terminus and C-terminus assumed), the “plaque formation (result in words)” value [1] was “completely inhibited”, the “lesion formation on CAMs (words)” value [2] was “significantly able to reduce lesion formation” and the “MW of polymer (GF peak molecular mass)” value [3] was 7.2 kDa. It also gave an Oligomeric state [3] of 2.
In the case of CC[C@H](C)[C@H](NC(=O)[C@H](CO)NC(=O)[C@H](CC(C)C)NC(=O)[C@H](CO)NC(=O)[C@H](C)NC(=O)[C@@H](NC(=O)[C@H](CC(N)=O)NC(=O)[C@H](CCCCN)NC(=O)[C@H](CO)NC(=O)[C@H](C)NC(=O)[C@H](CC(N)=O)NC(=O)[C@@H](NC(=O)[C@@H](NC(=O)[C@@H](NC(=O)[C@H](CCCCN)NC(=O)[C@H](CCCNC(=N)N)NC(=O)[C@@H](NC(=O)[C@H](CC(C)C)NC(=O)[C@H](CO)NC(=O)[C@H](CCCCN)NC(=O)[C@@H](NC(=O)[C@@H](NC(=O)[C@H](CC(=O)O)NC(=O)[C@H](C)NC(=O)[C@@H](N)CC(N)=O)[C@@H](C)CC)[C@@H](C)CC)[C@@H](C)CC)[C@@H](C)O)[C@@H](C)CC)[C@@H](C)CC)[C@@H](C)O)C(=O)N[C@@H](CC(C)C)C(=O)N[C@@H](CCC(N)=O)C(=O)N[C@@H](Cc1c[nH]cn1)C(=O)N[C@@H](CC(C)C)C(=O)N[C@@H](Cc1ccc(O)cc1)C(=O)N[C@H](C(=O)N[C@@H](CC(C)C)C(=O)N[C@@H](CCCNC(=N)N)C(=O)N[C@@H](CO)C(=O)O)C(C)C [gHH3] (H-NADIIKSLIRKTIINASKNTASLSILQHLYVLRS-OH; N-terminus and C-terminus assumed), the plaque formation [1] is reported as roughly 20%, the “lesion formation on CAMs (words)” value [2] is reported as “significantly able to reduce lesion formation” and the “MW of polymer (GF peak molecular mass)” value [3] is reported as 3.8 kDa. It also gave an Oligomeric state [3] of 1.
In the case of CC[C@H](C)[C@H](NC(=O)[C@H](C)NC(=O)[C@H](C)NC(=O)[C@H](CCC(=O)O)NC(=O)[C@H](C)NC(=O)[C@H](CCC(=O)O)NC(=O)[C@H](CCCNC(=N)N)NC(=O)[C@H](CCCCN)NC(=O)[C@@H](NC(=O)[C@H](CS)NC(=O)[C@H](CCC(N)=O)NC(=O)CNC(=O)[C@H](CC(C)C)NC(=O)[C@@H](NC(=O)[C@@H](NC(=O)[C@@H](N)CCCNC(=N)N)[C@@H](C)CC)[C@@H](C)CC)[C@@H](C)CC)C(=O)N[C@@H](CCC(=O)O)C(=O)N[C@@H](CCC(N)=O)C(=O)N[C@H](C(=O)N[C@@H](Cc1ccccc1)C(=O)N[C@@H](CCCNC(=N)N)C(=O)N[C@H](C(=O)N[C@@H](CCCCN)C(=O)N[C@@H](Cc1ccc(O)cc1)C(=O)N[C@@H](CC(N)=O)C(=O)N[C@@H](CC(=O)O)C(=O)N[C@@H](CO)C(=O)N[C@@H](Cc1c[nH]cn1)C(=O)O)[C@@H](C)O)[C@@H](C)CC [gBH1], the plaque formation [1] is reported as roughly 12%, the “lesion formation on CAMs (words)” value [2] is reported as “significantly able to reduce lesion formation” and the “MW of polymer (GF peak molecular mass)” value [3] is reported as 10.7 kDa. It also gave an Oligomeric state [3] of 3.
With CC[C@H](C)[C@H](NC(=O)[C@H](CCCCN)NC(=O)[C@@H](NC(=O)[C@H](Cc1ccc(O)cc1)NC(=O)[C@H](CCSC)NC(=O)[C@H](CCC(=O)O)NC(=O)[C@H](CCC(N)=O)NC(=O)[C@@H](NC(=O)[C@@H](NC(=O)[C@H](CC(C)C)NC(=O)[C@H](CCC(=O)O)NC(=O)[C@@H](NC(=O)[C@H](C)NC(=O)[C@@H](NC(=O)[C@@H](NC(=O)[C@H](Cc1c[nH]cn1)NC(=O)[C@H](CCC(=O)O)NC(=O)[C@H](CCC(=O)O)NC(=O)[C@@H](NC(=O)[C@@H](N)CS)[C@@H](C)O)[C@@H](C)CC)C(C)C)[C@@H](C)O)C(C)C)[C@@H](C)CC)[C@@H](C)CC)C(=O)N[C@@H](CC(N)=O)C(=O)N[C@H](C(=O)N[C@@H](CCCCN)C(=O)N[C@@H](CC(N)=O)C(=O)N[C@@H](CO)C(=O)N1CCC[C@H]1C(=O)O)C(C)C [gHH5] (H-CTEEHIVATELVIQEMYIKINVKNSP-OH; N-terminus and C-terminus assumed) the plaque formation [1] was roughly 13%, the “lesion formation on CAMs (words)” value [2] was “significantly able to reduce lesion formation” and the “MW of polymer (GF peak molecular mass)” value [3] was 9.1 kDa. The Oligomeric state [3] was 3.
